Measurements reported in US9730450B2, “Use of isosorbide monoesters as antimicrobial active substances” (CLARIANT INTERNATIONAL LTD., priority 2011, dated 2017).
≈ marks a conversion by molar mass, not a printed value. Where two headings read alike, the source gives them in different places.

How the values were obtained:
[1] = tested on: bacteria, fungi and yeasts; settings: general statement, no test described, cited from earlier work
Aspergillus brasiliensis = test: MIC agar dilution test, fungi; format: cell-based; settings: Aspergillus brasiliensis (F); Sabouraud 4% dextrose agar buffered to pH 5.6; corrected for dilution effect of butyl polyglycol; read-out: Minimum inhibitory concentration (MIC)
Protocol: (§1) Below, the antimicrobial efficacy of isosorbide caprylate 1 in butyl polyglycol against bacteria, fungi and yeasts is examined. For the tests with bacteria, isosorbide caprylate 1 was diluted with butyl polyglycol and then, at 50° C., added to liquid CASO agar (casein-peptone agar) buffered to pH 7 (+1-0.2) in various concentrations (hereinbelow referred to as compositions B1, B2, etc.). For the tests with fungi and yeasts, isosorbide caprylate 1 was diluted with butyl polyglycol and then added to liquid Sabouraud 4% dextrose agar buffered to pH 5.6 (+1-0.2) in various concentrations (hereinbelow referred to as compositions PH1, PH2, etc.). The compositions B1, B2, etc. and PH1, PH2 etc. were each poured into Petri dishes and each inoculated with identical amounts of bacteria, fungi and yeasts. The minimum inhibitory concentration (MIC) is the concentration at which inhibition of the growth of the bacteria, fungi and yeasts in the compositions B1, B2, etc. and PH1, PH2, etc. occurs.
(§2) Analogously to the determination of the antimicrobial activity of isosorbide caprylate 1, the antimicrobial activity firstly of a mixture comprising 89.6% by weight of isosorbide dicaprylate and 9.4% by weight of isosorbide monocaprylate (remainder: 1% by weight) (hereinbelow referred to as “isosorbide dicaprylate”) and, secondly, pure isosorbide was determined in further test series.

Penicillium funicolosium = test: MIC agar dilution test, fungi; format: cell-based; settings: Penicillium funicolosium (F); Sabouraud 4% dextrose agar buffered to pH 5.6; corrected for dilution effect of butyl polyglycol; read-out: Minimum inhibitory concentration (MIC)
Protocol: as §1, §2

Penicillium minioluteum = test: MIC agar dilution test, fungi; format: cell-based; settings: Talaromyces minioluteus; Penicillium minioluteum (F); Sabouraud 4% dextrose agar buffered to pH 5.6; corrected for dilution effect of butyl polyglycol; read-out: Minimum inhibitory concentration (MIC)
Protocol: as §1, §2

Aspergillus terreus = test: MIC agar dilution test, fungi; format: cell-based; settings: Aspergillus terreus (F); Sabouraud 4% dextrose agar buffered to pH 5.6; corrected for dilution effect of butyl polyglycol; read-out: Minimum inhibitory concentration (MIC)
Protocol: as §1, §2

Fusarium solani = test: MIC agar dilution test, fungi; format: cell-based; settings: Fusarium solani (F); Sabouraud 4% dextrose agar buffered to pH 5.6; corrected for dilution effect of butyl polyglycol; read-out: Minimum inhibitory concentration (MIC)
Protocol: as §1, §2

Candida albicans = test: MIC agar dilution test, yeasts; format: cell-based; settings: Candida albicans (Y); Sabouraud 4% dextrose agar buffered to pH 5.6; corrected for dilution effect of butyl polyglycol; read-out: Minimum inhibitory concentration (MIC)
Protocol: as §1, §2

Pseudomonas oleovorans = test: MIC agar dilution test, bacteria; format: cell-based; settings: Ectopseudomonas oleovorans; Pseudomonas oleovorans (B); CASO agar buffered to pH 7; corrected for dilution effect of butyl polyglycol; read-out: Minimum inhibitory concentration (MIC)
Protocol: as §1, §2

Citrobacter freundii = test: MIC agar dilution test, bacteria; format: cell-based; settings: Citrobacter freundii (B); CASO agar buffered to pH 7; corrected for dilution effect of butyl polyglycol; read-out: Minimum inhibitory concentration (MIC)
Protocol: as §1, §2

Enterobacter aerogenes = test: MIC agar dilution test, bacteria; format: cell-based; settings: Klebsiella aerogenes; Enterobacter aerogenes (B); CASO agar buffered to pH 7; corrected for dilution effect of butyl polyglycol; read-out: Minimum inhibitory concentration (MIC)
Protocol: as §1, §2

Klebsiella pneumoniae = test: MIC agar dilution test, bacteria; format: cell-based; settings: Klebsiella pneumoniae (B); CASO agar buffered to pH 7; corrected for dilution effect of butyl polyglycol; read-out: Minimum inhibitory concentration (MIC)
Protocol: as §1, §2

Pseudomonas aeruginosa = test: MIC agar dilution test, bacteria; format: cell-based; settings: Pseudomonas aeruginosa (B); CASO agar buffered to pH 7; corrected for dilution effect of butyl polyglycol; read-out: Minimum inhibitory concentration (MIC)
Protocol: as §1, §2

Proteus vulgaris = test: MIC agar dilution test, bacteria; format: cell-based; settings: Proteus vulgaris (B); CASO agar buffered to pH 7; corrected for dilution effect of butyl polyglycol; read-out: Minimum inhibitory concentration (MIC)
Protocol: as §1, §2

Escherichia coli = test: MIC agar dilution test, bacteria; format: cell-based; settings: Escherichia coli (B); CASO agar buffered to pH 7; corrected for dilution effect of butyl polyglycol; read-out: Minimum inhibitory concentration (MIC)
Protocol: as §1, §2

Staphylococcus aureus = test: MIC agar dilution test, bacteria; format: cell-based; settings: Staphylococcus aureus (B); CASO agar buffered to pH 7; corrected for dilution effect of butyl polyglycol; read-out: Minimum inhibitory concentration (MIC)
Protocol: as §1, §2

[2] = tested on: bacteria, fungi and yeasts; test: Antimicrobial efficacy, overall statement; format: cell-based
Protocol: as §1, §2

## CCCCCCCC(=O)O [caprylic acid]
[1]; at a pH of 6 or above
  antimicrobial activity (in words): no antimicrobial activity
[1]
  antimicrobial activity (in words): antimicrobially effective

## O[C@@H]1CO[C@H]2[C@@H]1OC[C@@H]2O [isosorbide]
Aspergillus brasiliensis
  MIC: 10000 µg/mL (≈ 68.4 mM)
Penicillium funicolosium
  MIC: 10000 µg/mL (≈ 68.4 mM)
Penicillium minioluteum
  MIC: 10000 µg/mL (≈ 68.4 mM)
Aspergillus terreus
  MIC: 10000 µg/mL (≈ 68.4 mM)
Fusarium solani
  MIC: 10000 µg/mL (≈ 68.4 mM)
Candida albicans
  MIC: 10000 µg/mL (≈ 68.4 mM)
Pseudomonas oleovorans
  MIC: 10000 µg/mL (≈ 68.4 mM)
Citrobacter freundii
  MIC: 10000 µg/mL (≈ 68.4 mM)
Enterobacter aerogenes
  MIC: 10000 µg/mL (≈ 68.4 mM)
Klebsiella pneumoniae
  MIC: 10000 µg/mL (≈ 68.4 mM)
Pseudomonas aeruginosa
  MIC: 10000 µg/mL (≈ 68.4 mM)
Proteus vulgaris
  MIC: 10000 µg/mL (≈ 68.4 mM)
Escherichia coli
  MIC: 10000 µg/mL (≈ 68.4 mM)
Staphylococcus aureus
  MIC: 10000 µg/mL (≈ 68.4 mM)
[2]; summary of MIC results of Tables 1 and 2
  antimicrobial activity (in words): neither isosorbide nor isosorbide dicaprylate is antimicrobially active

## isosorbide monocaprylate
[2]; concluded from activity of isosorbide caprylate 1 and inactivity of its other constituents, in particular as fungicide against fungi and yeasts
  antimicrobial activity (in words): significant antimicrobial activity
